Results reported in patent publication US20230000835A1, “LYSINE-SPECIFIC HISTONE DEMETHYLASE INHIBITORS FOR THE TREATMENT OF MYELOPROLIFERATIVE NEOPLASMS” (Imago Biosciences, Inc., priority 2019, published 2023).
Where a name gives a salt, the structure may show the parent alone.

Assays:
[1] = Non-clinical acute toxicity studies; assay type: in vivo; conditions: even at extremely high doses (human equivalent dose ~20-40 mg/kg)
[2] = test system: patients with high-risk MF; experiment: Clinical studies in myelofibrosis: safety and tolerability (adverse events); assay type: in vivo
Method: (§1) A multi-center, open-label study evaluating the safety, tolerability, steady-state pharmacokinetics and pharmacodynamics of Compound 1 administered orally once daily in patients with high-risk MF, including primary myelofibrosis (PMF), post-polycythemia vera myelofibrosis (PPV-MF), and post-essential thrombocythemia myelofibrosis (PET-MF) (collectively referred to as ‘MF’) was initiated as a Phase 1/2A study, and was expanded to a Phase 2b study.
(§2) This study was conducted at multiple sites. Up to 50 patients, eighteen years of age or older, with high-risk myelofibrosis were treated. The primary objectives included safety and tolerability, pharmacokinetics (PK; Phase 1/2A only) and spleen volume reduction (SVR). […] Key inclusion criteria included: high- or intermediate-2 risk myelofibrosis; per the Investigator's judgment have failed (refractory or resistant to, inadequately controlled by or intolerant of), or are not a candidate for, available approved therapy including ruxolitinib; platelet count ≥100K/μL; and, circulating blasts ≤10%.
Safety. […] Four SAEs attributed to Compound 1 (all Grade 3), including painful splenomegaly, headache, nausea and vomiting, and heart failure. There were 139 AEs of all grades attributed to Compound 1. The most common AEs across the 31 subjects from both of the above studies were thrombocytopenia (11 subjects, 35%), anemia (3 subjects, 10%) and nausea (1, 3%). The most common grade 3/4 AEs attributed to Compound 1 were Anemia (6 subjects, 19%) and neutropenia (3 subjects, 10%).

[3] = test system: patients with myelofibrosis; experiment: All patients (Phase 1/2a and 2b): total symptom score at week 12; assay type: in vivo, human; conditions: all patients at Week 12, n=32
Method: A multi-center, open label, dose-range finding study to assess the safety, optimally effective dosing rules, steady-state pharmacokinetics and pharmacodynamics of Compound 1 orally once daily in patients with myelofibrosis was conducted in a Phase 1/2a study. • Primary objectives were to evaluate, in MF patients the effect of Compound 1 on: Safety and tolerability • Pharmacokinetics (Phase 1/2a only) • Reduction in spleen volume
This study initiated as a Phase 1/2a study assessing the safety of the starting dose, an 85 day duration of treatment, and the pharmacokinetic and pharmacodynamic effects of Compound 1, with transition to a Phase 2b study incorporating changes supported by the earlier pharmacokinetic and pharmacodynamic studies and safety assessments. This study consisted of two treatment periods: the Initial Treatment Period (ITP), followed by the Additional Treatment Period (ATP). Patients commenced enrolment in the Phase 2b portion of the study, in which the ITP has been extended such that patients were treated daily for 169 days. The ATP, also extended, offered treatment to qualifying patients for an additional 169 days.
The Myeloproliferative Neoplasm Symptom Assessment Form Total Symptom Score (MPN-SAF TSS) will be completed at Baseline and on each visit day (with the exception of Day 3) from Day 0 through the End of Study (EoS) Visit.

[4] = test system: inflammatory cytokines and circulating growth factors; experiment: Phase 1/2a clinical study: inflammatory cytokines and circulating growth factors; assay type: in vivo, human
Method: as §1, §2
One strategy to reduce the excess products of megakaryocytes is to target megakaryocyte maturation and function. The effectiveness of a treatment targeting the megakaryocyte may be quantified by measuring the products of megakaryocytes, e.g., platelets in circulation or inflammatory cytokines and growth factors in plasma or serum.

bone marrow fibrosis = experiment: Phase 1/2a clinical study: bone marrow fibrosis grade; assay type: in vivo, human; conditions: Day 0 to Day 84 or EoT; 13 patients with biopsies
Description: as §1
All but one patient had received one or more prior treatments including ruxolitinib. 48% had PMF, 33% PET-MF, 19% PPV-MF. The median patient age was 65 years (48-89) with 58% males. 48% were classified as high risk (IPSS), the remainder, intermediate risk-2. […] A substantial fraction of the patients had ≥3 mutations. Patients were treated daily for 12 weeks, in accordance with above starting dose and titration rules, followed by a washout period of up to 28 days. Starting platelet counts ranged from about 141 to about 1309 k/μL. Bone marrow biopsies and imaging studies of the abdomen were conducted prior to treatment and during the washout period after 12 weeks of dosing. Grading of myelofibrosis was performed centrally using the 2016 revised World Health Organization classification of myeloid neoplasia (Arber et al., 2016); image reading was also performed centrally. […]

With `CN1CCN(C(=O)[C@H](CCCN[C@@H]2C[C@H]2c2ccc(F)cc2)NC(=O)c2ccc(-n3ccnn3)cc2)CC1` [Compound 1, N-[(2S)-5-{[(1R, 2S)-2-(4-fluorophenyl)cyclopropyl]amino}-1-(4-methylpiperazin-1-yl)-1-oxopentan-2-yl]-4-(1H-1,2,3-triazol-1-yl)benzamide, bis-tosylate salt] the “acute toxicity in non-clinical studies” value [1] was “no evidence in non-clinical studies of acute toxicity”, the “subjects with anemia (most common AEs)” value ([2]; 31 subjects) was 10% and the “subjects with grade 3/4 Anemia attributed to the drug” value ([2]; 31 subjects) was 19%. The “subjects with grade 3/4 neutropenia attributed to the drug” value ([2]; 31 subjects) was 10%, the “subjects with nausea (most common AEs)” value ([2]; 31 subjects) was 3% and the “subjects with thrombocytopenia (most common AEs)” value ([2]; 31 subjects) was 35%. For the same compound, the tolerability ([2]; heterogeneous population of patients with MF) was “well tolerated”, the “number of AEs of all grades attributed to the drug” value ([2]; human, in vivo) was 139 and the “number of SAEs attributed to the drug (all Grade 3)” value ([2]; painful splenomegaly, headache, nausea and vomiting, heart failure) was “Four”. The “patients with a reduction of symptom score of ≥50%” value [3] was 25%, the “levels of CCL3, IL-6, IL-10, IL-33, IL-28A, IFNβ, IFNα, IFNγ” value ([4]; in the course of treatment) was “not elevated in any patient” and the “change in inflammatory cytokine S100A9” value ([4]; week 12, FIG. 4) was “generally decreased”. The “change in inflammatory cytokine RANTES” value ([4]; week 12, FIG. 5) was “generally decreased”, the “change in inflammatory cytokine IL-8” value ([4]; week 12, FIG. 6) was “generally decreased” and the “change in circulating growth factor VEGF” value ([4]; week 12, FIG. 7) was “generally decreased”. For the same compound, the “change in circulating growth factor PDGF-BB” value ([4]; week 12, FIG. 8) was “generally decreased”, the “patients with a stable fibrosis score” value (bone marrow fibrosis) was 62% and the “patients with improvement of bone marrow fibrosis of ≥1 grade” value (bone marrow fibrosis) was 15%.
